Test results as given in patent US12385042B2, “Cell-penetrating peptides” (VECTIOPEP OÜ, priority 2019, dated 2025).
Where a SMILES comes first, the peptide text is derived from it. Bridges are numbered along the chain shown (N, C = ends). Roman numbers before positions name the chains, in order. [ ]: non-standard residue; d: D form. The star is where a group is joined. Arachidoyl = CCCCCCCCCCCCCCCCCCCC(=O)*; Stearoyl = CCCCCCCCCCCCCCCCCC(=O)*; Orn = NCCC[C@H](N)C(=O)O

Experiments:
organs of BALB/c mice = experiment: Gene delivery in vivo (CPP/pDNA, i.v., organ luminescence); design: species or system mouse; settings: for reporter gene expression in organs after i.v. CPP/pDNA (in words): CR2 or CR4, 50 μg or 20 μg pDNA, 24 h
Experimental: For in vivo pDNA delivery studies BALB/c mice were used. Each animal received a single […] intravenous (i.v.) injection of the complexes at CR2 or CR4. Two doses of pDNA […] were used. After 24 hr, the mice were sacrificed using cervical dislocation, and whole organs were harvested and snap-frozen on dry ice. The organs were homogenized, and luminescence was measured.

[1] = Negative staining TEM of CPP/siRNA nanoparticles; format: physicochemical; settings: CPP/siRNA complexes at MR30
Experimental: For the morphological analysis the CPP/siRNA complexes were assembled as described above at MR30. For negative staining, copper grids were covered with Formvar film and carbon layer using Leica EM ACE600 carbon coater (Leica Microsystems, Germany). Then, 10 μL of each sample was absorbed to the grids for 2 min and excess of solution was gently removed. Samples were then exposed to 2% aqueous uranyl acetate solution for 1 min. After removing excess stain with filter paper, the samples were allowed to air-dry. The samples were examined at 120 kV accelerating voltage on FEI Tecnai G2 Spirit electron microscope (FEI, The Netherlands).

[2] = test system: murine blood coagulation factor VII mRNA; experiment: Gene downregulation in vivo (siFVII, mouse liver, qRT-PCR)
Experimental: For the gene downregulation studies male Balb/c, 2-4 month-old mice were used, with 2-5 mice per group. The CPP/siRNA complexes were formed at MR30 and for each mouse 1.6 mg/kg siRNA dose was used. Particle formulations were administered intravenously via tail vein injection, at 1.6 mg/kg siRNA dose. 48 h post treatment, liver tissues were harvested and snap-frozen for analyses. The tissues were homogenized using Precellys®24-Dual homogenization system (Bertin Technologies, France) with TRIzol reagent (Thermo Fisher Scientific). RNA was extracted according to TRIzol manufacturers protocol with slight modifications. RNA quality and concentration was assessed on 1.8% agarose gel and NanoDrop2000. From RNA complementary DNA was synthesized using SuperScript IV Reverse Transcriptase (Thermo Fisher Scientific) according to manufacturer's protocol. The synthesized cDNA was used for qPCR accompanied with 5× HOT FIREPol EvaGreen qPCR Supermix (Solis Biodyne, Estonia) according to manufacturer's protocol. The obtained data was analyzed using 2-ΔΔCT method and normalized to untreated mouse group (100%). siRNA against blood coagulation factor VII (siFVII) sense 5′-gga (2′F-U) (2′F-C) a (2′F-U) (2′F-C) (2′F-U) (2′F-C) aag (2′F-U) (2′F-C) (2′F-U) (2′F-U) a (2′F-C) T*T-3″ and antisense 5′-g (2′F-U) aaga (2′F-C) (2′F-U) (2′F-U) gaga (2′F-U) ga (2′F-U) (2′F-C) (2′F-C) T*T 3′. Primers for PCR (Mus blood coagulation factor VII) forward […] (SEQ ID NO:11), reverse: […] (SEQ ID NO:12) and (Mus Actin beta) forward: […] (SEQ ID NO: 13) and reverse: […] (SEQ ID NO:14). The siRNA and primers were synthesized by the same manufacturer (Metabion, Germany). Data was collected with ViiA 7 RT_PCR system and analysis based on […] and normalized to results from untreated mice.
As a control hydrodynamic injection of 600 ul of siRNA was used and untreated mice were included. All animal experiments and procedures were approved by the Estonian Laboratory Animal Ethics Committee (approvals no 81, dated Apr. 4, 2016, and 69 and 70, dated Feb. 9, 2011).

[3] = test system: subcutaneous U87MG tumor xenograft; experiment: Biodistribution of CPP/Cy5-siRNA nanoparticles, U87 tumor; format: in vivo, mouse; settings: peak at 3 h
Experimental: (§1) Human tumor xenografts (subcutaneous U87MG and HT-1080) were induced in mice (Hsd: Athymic Nude-Foxn1nu female, 2.5 month old, Harlan, UK). The xenografting was performed by implanting the cell suspension (1×10^6 cells in 100 ul volume of ice-cold DMEM without any supplements) subcutaneously to the flank.
(§2) At the appearance of tumor size of approx. 100 mm^3, mice were injected i.v. (via tail vein) with the CPP/siRNA complexes. Each animal received a single 200 ul i.v. injection of 20 ug Cy5-siRNA, formulated with CPPs at MR20 or MR40. As a control, 20 μg of un-complexed Cy5-labeled siRNA was administered. The biodistribution of Cy5-siRNA and CPP/Cy5-siRNA complexes was evaluated at different time points −0.5 h up to 6 h. For that, mice (n=2 in each treatment group) were imaged in vivo using IVIS Lumina II (CaliperLS, USA). Cy-5 fluorescence intensity values were acquired from the tumor region.

CHO cells = experiment: pDNA (p-CMV-Luc2) transfection with CPP/pDNA complexes; format: cell-based; settings: serum containing medium, CR1 to CR4, 24 h
Experimental: For the pDNA transfection experiment, CPP/pDNA nanoparticles were prepared by mixing […] of plasmid (p-CMV-Luc2) with the peptide in MQ water. Charge ratios from 1 to 4 (CR, equivalent to the nitrogen-to-phosphate ratio) were used. 50,000 CHO cells were seeded 24 hr before the experiment into 24-well plates, treated with complexes for 4 h in serum-containing medium, incubated for additional 20 hr, lysed and luminescence was measured.

Proteinase K = target: T1, Proteinase K (Parengyodontium album, UniProt P06873); experiment: Stability of CPP/siRNA complexes to degradation by Proteinase K; format: physicochemical; settings: Proteinase K >14.4 U per well
T1 construct: purchased Thermo Scientific, USA
Experimental: To assess protection of siRNA from enzymatic degradation, after addition of PG dilution and initial measurement to set a starting point, Proteinase K (Thermo Scientific, USA) was added (>14 U/ml, 20 ul of mixture per well containing dilution of 120 ul of enzyme in 1 ml), co-incubated with complexes and fluorescence was measured over a 10 h period.

U87 cells = experiment: MTS toxicity assay; format: cell-based, human
Experimental: Cell proliferation was determined with the CellTiter 96® Aqueous Non-Radioactive Cell Proliferation Assay (MTS) (Promega Biotech AB, Sweden) according to the manufacturer's instructions. For this 1×10^5 U87 cells were seeded 1 day prior to experiment on transparent 96-well plates. On experiment day, media was replaced with 90 ul of fresh media and to the cells complexes formed at MR30 (both with 25 nM and 100 nM final siRNA concentrations) or free peptide at the range of 0.5-4 uM final concentrations were added. Cells were treated with complexes for 20 h. MTS was added according to the manufacturer's protocol. The absorbance of formazan product was measured at 490 nm with Tecan Sunrise microplate absorbance reader (Tecan Group Ltd, Switzerland) and percentage of viable cells was calculated using GraphPad Prism software 5.0 (Graphpad Software, CA, USA).

[4] = test system: subcutaneous HT-1080 tumor xenograft; experiment: Biodistribution of CPP/Cy5-siRNA nanoparticles, HT-1080 tumor; format: in vivo, mouse; settings: peak at 3 h
Experimental: as §1, §2

T1 sequence (P06873 106-384): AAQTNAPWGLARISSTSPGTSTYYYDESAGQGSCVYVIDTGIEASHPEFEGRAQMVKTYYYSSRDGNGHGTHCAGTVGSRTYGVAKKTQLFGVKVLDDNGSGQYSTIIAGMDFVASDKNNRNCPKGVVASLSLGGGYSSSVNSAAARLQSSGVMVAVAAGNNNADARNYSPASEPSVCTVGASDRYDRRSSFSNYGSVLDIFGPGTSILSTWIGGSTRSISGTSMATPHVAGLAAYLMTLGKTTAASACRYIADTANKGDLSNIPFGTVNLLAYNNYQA

| Structure (SMILES) | reporter gene expression in organs after i.v. CPP/pDNA (in words) (organs of BALB/c mice) | length or size of elongated particles, conglomerates or aggregates (TEM) [1] | nanoparticle diameter / size (TEM) [1] | RNA levels preserved compared to untreated mice ([2]; 1.6 mg/kg siFVII, 48 h, liver) | downregulation compared to siRNA treated group ([2]; 1.6 mg/kg siRNA) | downregulation compared to free siRNA and In vivo JetPEI at N/P6 ([2]; same 1.6 mg/kg dose) | downregulation of the target (FVII) in mouse liver ([2]; single i.v. injection, 1.6 mg/kg siRNA, MR30, 48 h, vs untreated mice) | transfection level in liver at CR2 compared to CR4 (organs of BALB/c mice; liver) | transfection level in lungs at CR2 compared to CR4 (organs of BALB/c mice; lungs) | peak accumulation in U87 tumor relative to naked Cy5-siRNA [3] | pDNA delivery / gene expression in vitro (in words) (CHO cells) | stability of complexes to proteinase K (in words) (Proteinase K) | concentration at which free peptide is toxic to cells (MTS) (U87 cells) | peak accumulation in HT-1080 tumor relative to naked Cy5-siRNA [4] |
| --- | --- | --- | --- | --- | --- | --- | --- | --- | --- | --- | --- | --- | --- | --- |
| CCCCCCCCCCCCCCCCCCCC(=O)N[C@@H](Cc1c[nH]cn1)C(=O)N[C@@H](Cc1c[nH]cn1)C(=O)N[C@@H](Cc1c[nH]cn1)C(=O)N[C@@H](Cc1c[nH]cn1)C(=O)N[C@@H](Cc1ccc(O)cc1)C(=O)N[C@@H](Cc1c[nH]cn1)C(=O)N[C@@H](Cc1c[nH]cn1)C(=O)NCC(=O)NCCC[C@H](N)C(=O)N[C@H](C(=O)N[C@@H](CC(C)C)C(=O)N[C@@H](CC(C)C)C(=O)N[C@@H](CCCCN)C(=O)N[C@@H](C)C(=O)N[C@@H](CC(C)C)C(=O)N[C@@H](CCCCN)C(=O)N[C@@H](C)C(=O)N[C@@H](CC(C)C)C(=O)N[C@@H](C)C(=O)N[C@@H](CCCCN)C(=O)N[C@@H](C)C(=O)N[C@H](C(=O)N[C@@H](CC(C)C)C(N)=O)[C@@H](C)CC)[C@@H](C)CC [NF70] (I: H-[Orn]ILLKALKALAKAIL-NH2 / II: Arachidoyl-HHHHYHHG; amide I:1-II:C) | very low transfection levels in vivo | 40-80 nm | 30-40 nm | approximately 40% | 30% | higher downregulation effect | ~60% | – | – | – | – | – | – | – |
| CCCCCCCCCCCCCCCCCC(=O)N[C@@H](Cc1c[nH]cn1)C(=O)N[C@@H](Cc1c[nH]cn1)C(=O)N[C@@H](Cc1ccc(O)cc1)C(=O)N[C@@H](Cc1c[nH]cn1)C(=O)N[C@@H](Cc1c[nH]cn1)C(=O)NCC(=O)NCCC[C@H](N)C(=O)N[C@H](C(=O)N[C@@H](CC(C)C)C(=O)N[C@@H](CC(C)C)C(=O)N[C@@H](CCCCN)C(=O)N[C@@H](C)C(=O)N[C@@H](CC(C)C)C(=O)N[C@@H](CCCCN)C(=O)N[C@@H](C)C(=O)N[C@@H](CC(C)C)C(=O)N[C@@H](C)C(=O)N[C@@H](CCCCN)C(=O)N[C@@H](C)C(=O)N[C@H](C(=O)N[C@@H](CC(C)C)C(N)=O)[C@@H](C)CC)[C@@H](C)CC [NF71] (I: H-[Orn]ILLKALKALAKAIL-NH2 / II: Stearoyl-HHYHHG; amide I:1-II:C) | high reporter gene expression in liver and lungs | – | – | – | – | – | – | 7 fold | 3 fold | 27 fold | promising vectors for pDNA transfection | only slightly more resistant than NF55/siRNA complexes | ≥ 5 µM | 37 fold |
